{
  "source": "patent US20030096015A1",
  "about": "“Cytogenic/nucleogenic healing” (priority 1997, published 2003)",
  "test_system": "multiple of infections (MOI)",
  "data": [
    {"smiles": "OC[C@H]1O[C@@](CO)(O[C@H]2O[C@H](CO)[C@@H](O)[C@H](O)[C@H]2O)[C@@H](O)[C@@H]1O", "note": "[5% Sucrose, sucrose]", "values": [
      {"measurement": "bacterial and viral growth / resistance to proteolysis by MOI", "setting": "medium streaked with mixed MOI culture", "value": "bacterial activity and viral replication at exponential rate"},
      {"measurement": "Comparative Degree of Resistance", "setting": "resistance to proteolysis by MOI, ambient temperature (24° C.)", "value": 5.0, "unit": "h"},
      {"measurement": "Relative Resistance", "setting": "resistance to proteolysis by MOI, ambient temperature (24° C.), 5% Sucrose = 1.0", "value": 1.0}
    ]}
  ]
}
